“Also recorded” adds a separate entry of the source.
Tests used:
Format in all cases: in vivo, C57BL6/J male mice
[1] = DEXA scan of high fat diet mice (body fat %, fat mass, lean mass); details: HFD mice; after 10 weeks of treatment
Description: (§1) 5 week old C57BL6/J male mice were divided into 2 groups as follows: normal diet (ND) (10% kcal/fat) or high fat diet (HFD) (60% kcal/fat) each containing the same total calories. At 12 weeks of age, the HFD group was further divided into 4 groups as follows: HFD alone, HFD supplemented with alpha-lipoic acid (HFD+ALA), HFD supplemented with curcumin (HFD+CUR), or HFD supplemented with alpha-lipoic acid plus curcumin (HFD+ALA+CUR). Based on the average food intake, the daily dose for alpha-lipoic acid in the HFD+ALA group was about 174 mg/kg, the daily dose for curcumin in the HFD+CUR group was about 65 mg/kg, and the daily dose for each component in the HFD+ALA+CUR group was similar to that in the respective groups. Each of the 5 groups contained 8-10 mice. Body weight of the mice was recorded weekly and food intake was monitored every two days. After 10 weeks of treatment mice from each group were subjected to dual-energy X-ray absorptiometry (DEXA) scan; percent (%) body fat, fat mass, and lean mass were calculated.

[2] = Body weight of high fat diet mice during treatment; details: HFD mice, ALA about 174 mg/kg daily, curcumin about 65 mg/kg daily; for body weight during the course of the experiment (FIG. 1): supplement in diet, recorded weekly
Description: as §1

[3] = Food intake of high fat diet mice; details: HFD mice; monitored every two days; compared to HFD mice
Description: as §1

Row | Structure (SMILES) | DEXA body fat % (FIG. 6) [1] | DEXA fat mass (FIG. 7) [1] | DEXA lean mass (FIG. 8) [1] | body weight / weight gain after 11 weeks of treatment (FIG. 3) [2] | body weight during the course of the experiment (FIG. 1) [2] | food intake (grams) per day per gram body weight (FIG. 4) [3] | food intake (kcals) per day per gram body weight (FIG. 5) [3]
1 | O=C(O)CCCCC1CCSS1 (racemic) [alpha-lipoic acid, 6,8-dithio octanoic acid] | failed to reduce body fat % | attenuated increase in fat mass compared to the HFD group | significant attenuation in lean mass accrual | attenuated weight gain; also recorded: efficacy at attenuating weight gain | weight gain less than the HFD mice | reduced food intake | reduced calorie intake
2 | COc1cc(/C=C/C(=O)CC(=O)/C=C/c2ccc(O)c(OC)c2)ccc1O [curcumin] | reduced the increased body fat % from a high fat diet | – | unaltered | attenuated weight gain; also recorded: efficacy at attenuating weight gain | weight gain less than the HFD mice | – | –
